Assay [1] concerns Tyrosine-protein kinase ABL1 (Homo sapiens), P00519 [T315I]. Nature of the assay: Inhibition of human truncated ABL T315I mutant expressed in baculovirus assessed as substrate phosphorylation using fluorescence-labelled peptides as substrate at 0.2 uM after 90 mins by microfluidic peptide phosphorylation assay.
The target of assay [2] is Tyrosine-protein kinase Fyn (Homo sapiens) (UniProt P06241). Conditions: 0.1 uM.
Description: Inhibition of human full length FYN expressed in baculovirus assessed as substrate phosphorylation using fluorescence-labelled peptides as substrate at 0.1 uM after 90 mins by microfluidic peptide phosphorylation assay
Assay [3] has as its target T1, Inhibitor of nuclear factor kappa-B kinase subunit beta (Homo sapiens) (UniProt O14920).
T1 sequence (whole entry): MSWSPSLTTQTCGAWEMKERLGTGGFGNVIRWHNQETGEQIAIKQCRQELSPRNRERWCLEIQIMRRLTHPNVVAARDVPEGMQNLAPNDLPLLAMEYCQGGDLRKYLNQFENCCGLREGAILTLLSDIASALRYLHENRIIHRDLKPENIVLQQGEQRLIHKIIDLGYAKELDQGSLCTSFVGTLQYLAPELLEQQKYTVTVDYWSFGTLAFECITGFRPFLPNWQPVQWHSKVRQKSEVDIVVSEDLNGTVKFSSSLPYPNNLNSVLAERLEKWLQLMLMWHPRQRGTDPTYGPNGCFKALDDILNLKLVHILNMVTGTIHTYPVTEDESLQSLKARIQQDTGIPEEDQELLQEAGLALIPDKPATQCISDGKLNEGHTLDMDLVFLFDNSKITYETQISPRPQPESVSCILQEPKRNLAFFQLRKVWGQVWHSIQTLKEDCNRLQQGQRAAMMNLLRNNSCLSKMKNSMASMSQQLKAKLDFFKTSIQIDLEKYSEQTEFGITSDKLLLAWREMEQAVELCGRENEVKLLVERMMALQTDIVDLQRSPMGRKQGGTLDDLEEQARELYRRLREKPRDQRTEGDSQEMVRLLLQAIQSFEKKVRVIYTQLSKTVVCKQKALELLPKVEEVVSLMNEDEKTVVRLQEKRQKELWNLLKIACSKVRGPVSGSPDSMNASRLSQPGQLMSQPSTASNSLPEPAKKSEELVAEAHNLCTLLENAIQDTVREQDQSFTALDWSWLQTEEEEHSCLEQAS
Nature of the assay: Inhibition of human full length IKK beta expressed in baculovirus assessed as substrate phosphorylation using fluorescence-labelled peptides as substrate at 9 uM after 90 mins by microfluidic peptide phosphorylation assay.

Assay [4] addresses T2, Cytoplasmic tyrosine-protein kinase BMX (Homo sapiens) (UniProt P51813).
T2 sequence (whole entry): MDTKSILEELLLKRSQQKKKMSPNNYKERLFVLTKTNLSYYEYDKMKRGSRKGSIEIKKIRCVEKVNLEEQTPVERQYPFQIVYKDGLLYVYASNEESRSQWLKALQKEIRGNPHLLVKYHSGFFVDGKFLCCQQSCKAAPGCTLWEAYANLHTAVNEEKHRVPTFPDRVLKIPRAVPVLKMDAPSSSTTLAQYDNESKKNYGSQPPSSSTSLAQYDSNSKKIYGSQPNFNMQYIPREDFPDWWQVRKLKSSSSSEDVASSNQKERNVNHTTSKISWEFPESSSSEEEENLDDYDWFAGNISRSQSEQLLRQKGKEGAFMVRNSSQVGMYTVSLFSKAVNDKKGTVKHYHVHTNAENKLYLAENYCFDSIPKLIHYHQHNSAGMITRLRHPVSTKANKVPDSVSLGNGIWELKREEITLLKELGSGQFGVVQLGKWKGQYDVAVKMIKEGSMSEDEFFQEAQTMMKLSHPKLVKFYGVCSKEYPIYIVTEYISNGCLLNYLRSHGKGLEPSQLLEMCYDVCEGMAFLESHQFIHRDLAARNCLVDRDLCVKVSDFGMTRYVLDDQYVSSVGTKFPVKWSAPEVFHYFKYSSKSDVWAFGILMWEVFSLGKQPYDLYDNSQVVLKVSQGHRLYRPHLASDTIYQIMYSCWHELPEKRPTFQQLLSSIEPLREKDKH
Kind of assay: Inhibition of human full length BMX expressed in baculovirus assessed as substrate phosphorylation using fluorescence-labelled peptides as substrate at 0.06 uM after 90 mins by microfluidic peptide phosphorylation assay.

Assay [5] concerns the target RAC-alpha serine/threonine-protein kinase (Homo sapiens) (UniProt P31749). Conditions: 0.06 uM.
Description: Inhibition of human AKT1 catalytic domain expressed in baculovirus assessed as substrate phosphorylation using fluorescence-labelled peptides as substrate at 0.06 uM after 90 mins by microfluidic peptide phosphorylation assay
Assay [6] has as its target T3, Testis-specific serine/threonine-protein kinase 2 (Homo sapiens) (UniProt Q96PF2).
T3 sequence (whole entry): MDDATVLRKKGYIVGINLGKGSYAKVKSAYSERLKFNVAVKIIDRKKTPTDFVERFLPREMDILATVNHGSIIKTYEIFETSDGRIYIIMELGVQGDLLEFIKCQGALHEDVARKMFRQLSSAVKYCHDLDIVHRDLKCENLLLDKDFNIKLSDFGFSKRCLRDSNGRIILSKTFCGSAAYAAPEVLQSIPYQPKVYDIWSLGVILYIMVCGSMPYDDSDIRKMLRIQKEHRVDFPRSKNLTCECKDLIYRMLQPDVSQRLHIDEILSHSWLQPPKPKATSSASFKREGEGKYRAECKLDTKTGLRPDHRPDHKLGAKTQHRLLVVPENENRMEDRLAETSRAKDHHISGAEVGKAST
Kind of assay: Inhibition of human full length TSSK2 expressed in baculovirus assessed as substrate phosphorylation using fluorescence-labelled peptides as substrate at 2 uM after 90 mins by microfluidic peptide phosphorylation assay.

Assay [7] has as its target T4, Protein kinase C zeta type (Homo sapiens) (UniProt Q05513).
T4 sequence (whole entry): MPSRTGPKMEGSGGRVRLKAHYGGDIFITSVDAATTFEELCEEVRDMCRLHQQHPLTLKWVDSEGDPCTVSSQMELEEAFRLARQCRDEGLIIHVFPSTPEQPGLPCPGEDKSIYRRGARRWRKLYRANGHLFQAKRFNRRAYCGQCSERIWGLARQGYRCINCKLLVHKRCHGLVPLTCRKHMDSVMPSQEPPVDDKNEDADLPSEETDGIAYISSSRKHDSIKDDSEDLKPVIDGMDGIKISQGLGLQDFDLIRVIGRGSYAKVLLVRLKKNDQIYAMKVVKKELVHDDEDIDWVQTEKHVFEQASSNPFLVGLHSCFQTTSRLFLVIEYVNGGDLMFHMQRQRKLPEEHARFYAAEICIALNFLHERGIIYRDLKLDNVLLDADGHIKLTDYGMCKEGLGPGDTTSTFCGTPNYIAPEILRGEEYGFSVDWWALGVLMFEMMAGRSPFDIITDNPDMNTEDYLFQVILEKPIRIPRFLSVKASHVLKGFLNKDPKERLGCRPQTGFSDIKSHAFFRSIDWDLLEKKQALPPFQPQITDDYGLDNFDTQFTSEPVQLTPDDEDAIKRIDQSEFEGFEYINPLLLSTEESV
Nature of the assay: Inhibition of human full length PKC zeta expressed in baculovirus assessed as substrate phosphorylation using fluorescence-labelled peptides as substrate at 2 uM after 90 mins by microfluidic peptide phosphorylation assay.

For assay [8], the target named is Protein kinase C delta type (Homo sapiens) (UniProt Q05655). Kind of assay: Inhibition of human truncated PKC delta expressed in baculovirus assessed as substrate phosphorylation using fluorescence-labelled peptides as substrate at 70 uM after 90 mins by microfluidic peptide phosphorylation assay.

The inhibition is how much of the control response was suppressed.

Chain of Tyrosine-protein kinase Fyn (Homo sapiens) (P06241 2-537 limits assumed): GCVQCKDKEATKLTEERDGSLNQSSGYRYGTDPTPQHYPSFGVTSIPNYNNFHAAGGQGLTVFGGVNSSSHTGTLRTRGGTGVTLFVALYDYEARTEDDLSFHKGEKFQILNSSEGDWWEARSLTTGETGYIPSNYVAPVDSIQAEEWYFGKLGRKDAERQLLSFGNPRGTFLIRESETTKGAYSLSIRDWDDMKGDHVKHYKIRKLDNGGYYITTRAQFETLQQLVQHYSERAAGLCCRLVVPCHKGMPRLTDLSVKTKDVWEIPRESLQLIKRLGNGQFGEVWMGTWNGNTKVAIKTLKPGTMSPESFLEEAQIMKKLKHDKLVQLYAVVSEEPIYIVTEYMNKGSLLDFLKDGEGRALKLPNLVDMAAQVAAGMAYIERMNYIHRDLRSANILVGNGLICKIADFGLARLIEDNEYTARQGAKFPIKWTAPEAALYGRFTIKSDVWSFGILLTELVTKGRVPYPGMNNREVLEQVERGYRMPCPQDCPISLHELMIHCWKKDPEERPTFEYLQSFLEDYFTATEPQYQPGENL
Chain of RAC-alpha serine/threonine-protein kinase (Homo sapiens) (P31749 whole entry): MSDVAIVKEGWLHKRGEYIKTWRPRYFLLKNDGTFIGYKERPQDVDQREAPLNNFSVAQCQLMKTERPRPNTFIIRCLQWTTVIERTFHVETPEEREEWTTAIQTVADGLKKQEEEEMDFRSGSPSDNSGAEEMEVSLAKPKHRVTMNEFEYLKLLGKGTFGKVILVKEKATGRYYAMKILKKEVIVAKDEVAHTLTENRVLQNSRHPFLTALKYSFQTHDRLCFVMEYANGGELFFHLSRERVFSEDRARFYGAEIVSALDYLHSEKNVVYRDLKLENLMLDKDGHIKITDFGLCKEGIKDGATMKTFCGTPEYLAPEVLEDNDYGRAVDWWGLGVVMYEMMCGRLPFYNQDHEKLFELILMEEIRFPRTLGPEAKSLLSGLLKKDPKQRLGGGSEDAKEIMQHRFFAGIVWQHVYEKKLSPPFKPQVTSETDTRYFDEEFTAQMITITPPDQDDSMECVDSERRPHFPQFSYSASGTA
Chain of Protein kinase C delta type (Homo sapiens) (Q05655 whole entry, looked up, the tested form may be a part): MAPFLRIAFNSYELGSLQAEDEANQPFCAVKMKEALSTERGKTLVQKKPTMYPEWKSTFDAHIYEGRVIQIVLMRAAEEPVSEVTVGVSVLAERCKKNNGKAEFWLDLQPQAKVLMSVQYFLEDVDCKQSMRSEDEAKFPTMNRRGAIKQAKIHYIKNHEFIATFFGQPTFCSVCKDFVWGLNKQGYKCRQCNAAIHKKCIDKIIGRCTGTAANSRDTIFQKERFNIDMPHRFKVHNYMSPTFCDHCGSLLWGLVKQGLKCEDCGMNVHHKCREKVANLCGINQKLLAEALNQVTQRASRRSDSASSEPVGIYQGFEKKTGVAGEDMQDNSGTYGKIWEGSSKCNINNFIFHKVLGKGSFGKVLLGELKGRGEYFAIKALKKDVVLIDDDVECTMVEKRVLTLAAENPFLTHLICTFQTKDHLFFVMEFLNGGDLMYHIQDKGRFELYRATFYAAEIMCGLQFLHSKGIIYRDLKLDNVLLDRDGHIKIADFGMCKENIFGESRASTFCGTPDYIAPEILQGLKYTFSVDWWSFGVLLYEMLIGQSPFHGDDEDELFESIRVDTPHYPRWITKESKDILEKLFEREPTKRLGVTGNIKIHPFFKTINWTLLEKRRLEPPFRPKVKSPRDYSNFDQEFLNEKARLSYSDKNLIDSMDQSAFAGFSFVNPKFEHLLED

Turning to `Clc1ccc(C2(c3ccc(-c4ncnc5[nH]cnc45)cc3)CCNCC2)cc1`, the inhibition in assay [1] came out at 0%. As for `C[C@H](CN(C)C)Oc1nc(Nc2cc3cccc(Cl)c3cn2)cnc1C#N`, in assay [2], the inhibition came out at 0%. `NCC1CN(c2ncnc3[nH]c4cnccc4c23)CCO1` (stereo not drawn): in assay [3], the inhibition came to 83%. Turning to `NC1(Cc2ccc(Cl)cc2)CCN(c2ncnc3[nH]ccc23)CC1`, the figures for the inhibition in assay [4] and in assay [5] were 0% and 34%, respectively. Turning to `NC1CCN(c2ncnc3[nH]ccc23)CC1`, the inhibition in assay [6] is 6.5%; in assay [7], 20.5%. In the case of `CNCc1ccc(-c2ncnc3[nH]cnc23)cc1`, in assay [8], the inhibition came out at 60%.
